Measurements: patent US8957114B2, “Formulations, salts and polymorphs of transnorsertraline and uses thereof” (Sunovion Pharmaceuticals Inc., priority 2009, dated 2015)

Key:
[1] = Moisture content by coulometric Karl Fischer titration (KF); assay type: physicochemical
Description: (§1) Each salt was analyzed by coulometric titration using an EM Scientific Aquastar C3000 titrator to determine water content. […] Each salt was analyzed using a Perkin Elmer TGA 7 Thermal Gravimetric Analyzer (TGA). […] Moisture sorption isotherms for each salt were generated using the VTI SGA-100 Symmetric Vapor Sorption Analyzer. Samples were run as received without pre-analysis drying. Equilibrium criteria were the lesser of 0.01 wt % change in 5 minutes or 180 minutes at each relative humidity (RH) step. […] Analysis was repeated for each sample in consecutive analyses (sample was not removed from analyzer). Sample sizes ranged from 18 mg to 35 mg.

[2] = Solubility of transnorsertraline salts in de-ionized water (HPLC); settings: for pH: saturated solution in de-ionized water
Description: For each salt, saturated solutions with excess solids in deionized water were prepared in 20 mL clear glass scintillation vials with screw caps. All samples were shaken at 300 rpm at ambient conditions for up to nine days until equilibrium was achieved. Solubility was determined using a HPLC method (Table 5).

[3] = Polymorphic conversion of anhydrous transnorsertraline hydrochloride to hydrate in aqueous media, in-situ Raman monitoring; assay type: physicochemical
Description: The study of the conversion of anhydrous transnorsertraline hydrochloride to the hydrate form in aqueous media was investigated, using in-situ Raman monitoring.
Raman spectroscopy was performed using a Kaiser Optical Systems Inc. dispersive RamanRXN3 for on-line or in-situ reaction monitoring. The RamanRXN3 system uses an excitation wavelength of 785 nm, with an external cavity-stabilized, diode laser. All spectra were acquired using a ¼″ immersion probe with approximately 100 mW of laser power at the tip of the probe. Different exposure times and numbers of spectrum accumulations were used for the analysis of the two dry samples. An exposure time of 4 seconds with 2 accumulations was used for the monitoring of all form conversions experiments. Wavelength and laser wavelength calibration were performed using an internal neon standard, and diamond Raman shift standard, respectively. The intensity calibration was performed using a Kaiser Raman calibration accessory.
Regions 660-715 cm^−1 and 1430-1490 cm^−1 in particular show little overlapping of the peaks characteristic of each form. Experimental results confirmed that no peaks in the regions […] and 1430-1490 cm^−1 were likely to overlap with peaks of interest to follow the conversion between the two crystalline forms of transnorsertraline hydrochloride.
The conversion of anhydrous transnorsertraline hydrochloride to the monohydrate form was monitored in water. […] Based on the peak intensity ratio I(677 cm^−1)/I(695 cm^−1), an induction time of approximately 1.1 hour was seen before the beginning of the conversion. The end of the conversion was estimated at approximately 2 hours from the beginning of the slurry. […] XRPD analysis of the solids collected at the end of the Raman monitoring of the conversion (after approximately 2 h 10 min) was consistent with the hydrate form, with a small amount of anhydrous form detectable. […] Additionally, the Raman limit of detection of the anhydrous form in the mixture was not estimated.
The conversion of anhydrous transnorsertraline hydrochloride to the hydrate form in water, simulated gastric fluid (SGF) and simulated intestinal fluid (SIF) without enzymes, and 0.1N HCl was monitored at 37° C.
Overall, similar results were obtained in water and simulated gastric fluid, with the start of the form conversion detected at approximately 1.3 hours, with a slightly faster conversion in simulated gastric fluid compared to water. The complete conversion was estimated to occur within 3 to 4 hours in the two media. […] XPRD analysis of the solids collected at the end of each experiments were consistent with the hydrate form, with or without some anhydrous form present. The small amount of anhydrous form may be due to residual solids on the walls of the vessel at the time of the slurry.

[4] = VTI moisture sorption isotherm (hygroscopicity); assay type: physicochemical; settings: for VTI Adsorp. (% wt gain 25 to 95% RH) / VTI Desorp. (% wt loss 95 to 25% RH): 25° C.
Description: as §1

[5] = Solubility of transnorsertraline salts in aqueous buffer systems (SGF, acetate buffer pH 4.5, SIF; HPLC); assay type: physicochemical
Description: Saturated solutions with excess solids were prepared in 20 mL clear glass scintillation vials. Simulated gastric fluid (pH 1.0, ˜0.1N HCl, 0.03M NaCl, no enzymes), simulated intestinal fluid (pH 6.8, 0.05M KH2PO4, ˜0.02N NaOH, no enzymes), and acetate buffer (pH 4.5, 0.02M sodium acetate, 0.03M acetic acid) were prepared in accordance with USP28 (USP28 Test Solutions p2855, Volumetric Solutions p2863). […] Solubility was determined using a HPLC method.

[6] = Thermal gravimetric analysis (TGA) weight loss; assay type: physicochemical; settings: heated 25° C. to 325° C. at 10° C./min
Description: The sixteen salts of transnorsertraline of Example 6.14 were analyzed for moisture content and hygroscopicity. Each salt was analyzed by coulometric titration using an EM Scientific Aquastar C3000 titrator to determine water content. Sample size ranged from 18 mg to 134 mg. Each salt was analyzed using a Perkin Elmer TGA 7 Thermal Gravimetric Analyzer (TGA). […] Moisture sorption isotherms for each salt were generated using the VTI SGA-100 Symmetric Vapor Sorption Analyzer. Samples were run as received without pre-analysis drying. Equilibrium criteria were the lesser of 0.01 wt % change in 5 minutes or 180 minutes at each relative humidity (RH) step. Temperature was fixed at 25° C. and the relative humidity steps (25 to 95% to 25%) were in 5% increments. Analysis was repeated for each sample in consecutive analyses (sample was not removed from analyzer). Sample sizes ranged from 18 mg to 35 mg.

[7] = Stability of transnorsertraline HCl blends with mannitol lots containing mannose, amount of degradant II (open dish 30° C./65% RH, HPLC); assay type: physicochemical
Text: The amount of conjugate degradant leveled off at about two weeks and then slightly declined as stress time increases. Formation of the degradant of formula II also depends on the temperature.
The amount of mannose in mannitol appeared to be the controlling factor, not the type of mannitol used in transnorsertraline HCl formulation (i.e., crystalline vs. spray dried). This was later confirmed from the results obtained using recrystallized mannitol samples spiked with mannose in the stability study of transnorsertraline HCl formulations.
Three recrystallized mannitol lots spiked with mannose were selected for further study based on their % mannose values. Crystalline mannitol and spray dried mannitol were used as controls. The recrystallized spray dried mannitol lot was also used in the study to determine whether the type of mannitol used (crystalline vs. spray dried) was significant. Transnorsertraline HCl blends were made using the selected mannitol lots and placed at 30° C./65% RH under open dish conditions and analyzed initially and then at 2, 4 and 6 weeks using HPLC.

[8] = Stability of isolated degradants of formula (III) fractions; assay type: physicochemical; settings: for compound converted: in the presence of NH4OAc, after 24 hours; for stability of freshly isolated fractions: without NH4OAc, a few days at room temperature
Description: Degradation products of active were isolated using semi-preparative HPLC (Zorbax SB-SN, 5 um, 9.2×250 mm; 20% ACN/H2O with 0.1% formic acid as mobile phase, 4 mL/min) with the aforementioned open dish degradation sample. Fractions containing these impurities were neutralized with 0.1 M NH4OAc before drying under vacuum to prevent possible decomposition.
Impurities 3 and 4 share the same molecular weight of 323 with almost identical MS fragmentation pattern. After the isolation and drying process, it was noticed that impurities 3 and 4 were converted to impurities 1 and 2 respectively (by HPLC retention time, MS data and ^1H NMR spectrum).
However, in the presence of NH4OAc, almost 50% of the compounds were converted after 24 hours. Furthermore, it was observed that upon drying under vacuum, Degradants III-c and III-d were converted to Degradants III-a and III-b independent of the presence of NH4OAc. Because the molecular formula difference between Degradants III-c and III-a was one oxygen atom as measured by HR-MS, it was concluded that Degradants […] and III-d were a diasteromeric pair of 4-hydroperoxy transnorsertraline. The conversions from impurity 3 and Degradant III-d to Degradants III-a and III-b may be by a decomposition process of hydroperoxides.

[9] = Solid stability of transnorsertraline salts (HPLC impurities); assay type: physicochemical; settings: HDPE container
Description: Salts of transnorsertraline were tested for solid stability under various conditions. Solid samples of the HCl salt were placed in double-polyehylene lined high density polyethylene (HDPE) containers closed with HDPE lids and stored at 25° C./60% relative humidity or 40° C./75% relative humidity. Samples were analyzed by HPLC.

[10] = SIF without enzymes, 37° C., large scale
[11] = SIF without enzymes, 37° C., larger scale
[12] = SIF without enzymes, 37° C., small scale
[13] = repeated consecutive analysis (second line)
[14] = saturated solution in 0.05M Acetate Buffer (pH 4.5)
[15] = saturated solution in Simulated Gastric Fluid
[16] = saturated solution in Simulated Intestinal Fluid

| Compound | Initial KF (% H2O) [1] | pH [2] | form conversion completed ([3]; 0.1N HCl, 37° C.) | form conversion completed ([3]; SGF without enzymes, 37° C.) | start of form conversion to hydrate ([3]; SGF without enzymes, 37° C.) | end of form conversion [3, 10] | start of form conversion to hydrate [3, 11] | end of form conversion [3, 12] | start of form conversion to hydrate [3, 12] | form conversion completed ([3]; water, 37° C.) | start of form conversion to hydrate ([3]; water, 37° C.) | VTI Adsorp. (% wt gain 25 to 95% RH) ([4]; first analysis) | VTI Desorp. (% wt loss 95 to 25% RH) ([4]; first analysis) | pH [5, 14] | pH [5, 15] | pH [5, 16] | TGA (% wt loss) [6] | compound converted [8] | stability of freshly isolated fractions [8] | also measured |
| --- | --- | --- | --- | --- | --- | --- | --- | --- | --- | --- | --- | --- | --- | --- | --- | --- | --- | --- | --- | --- |
| transnorsertraline hydrochloride [HCl] | 0.02 % H2O | 5.32 | approximately 4 hours | 3 to 4 h | approximately 1.3 hours | ~36 h | ~19 h | approximately 12.5 hours | ~10 h | 3 to 4 h | approximately 1.3 hours | 0.01 % wt gain | 0.02 % wt loss | 4.58 | 1.28 | 6.75 | 0.00 % wt loss |  |  | induction time of form conversion ([3]; 0.1N HCl, 37° C., larger scale): 2 to 2.3 h; VTI Adsorp. (% wt gain 25 to 95% RH) [4, 13]: 0.01 % wt gain; VTI Desorp. (% wt loss 95 to 25% RH) [4, 13]: 0.02 % wt loss; VTI adsorption, weight gain ([4]; second lot, from 25 to 95% relative humidity): 0.01%; VTI desorption, weight loss ([4]; second lot, from 95% to 25% relative humidity): 0.01%; Solubility in Freebase Equivalents mgA/mL [5]: 0.13 mgA/mL; Solubility in Freebase Equivalents mgA/mL ([5]; pH 4.5): 2.15 mgA/mL; Solubility in Freebase Equivalents mgA/mL ([5]; pH 6.8): 0.24 mgA/mL |
| OCC1OC(NC2CCC(c3ccc(Cl)c(Cl)c3)c3ccccc32)C(O)C(O)C1O (centres unmarked) [degradant of formula II] |  |  |  |  |  |  |  |  |  |  |  |  |  |  |  |  |  |  |  | behaviour of degradant at higher temperature [7]: underwent decomposition |
| N[C@@H]1CCC(OO)(c2ccc(Cl)c(Cl)c2)c2ccccc21 (single isomer, unassigned) [Degradant-III-c, 4-hydroperoxy transnorsertraline] |  |  |  |  |  |  |  |  |  |  |  |  |  |  |  |  |  | ~50% | relatively stable |  |
| N[C@@H]1CCC(OO)(c2ccc(Cl)c(Cl)c2)c2ccccc21 (single isomer, unassigned) [III-d, 4-hydroperoxy transnorsertraline] |  |  |  |  |  |  |  |  |  |  |  |  |  |  |  |  |  | ~50% | relatively stable |  |
| Tosylate | 0.09 % H2O | 6.16 |  |  |  |  |  |  |  |  |  | 0.06 % wt gain | 0.06 % wt loss | 4.56 | 1.10 | 6.78 | 0.16 % wt loss |  |  | Solubility in Freebase Equivalents mgA/mL ([2]; de-ionized water, ambient, shaken up to nine days until equilibrium): 0.53 mgA/mL; Solubility in Freebase Equivalents mgA/mL ([5]; 0.05M Acetate Buffer (pH 4.5), ambient, up to nine days): 0.63 mgA/mL; Solubility in Freebase Equivalents mgA/mL ([5]; Simulated Gastric Fluid (no enzymes), ambient, up to nine days): 0.06 mgA/mL; Solubility in Freebase Equivalents mgA/mL ([5]; Simulated Intestinal Fluid (pH 6.8, no enzymes), ambient, up to nine days): 0.21 mgA/mL |
| transnorsertraline hydrochloride anhydrate |  |  | 3 to 4 h | 3 to 4 h | approximately 1.3 hours | ~36 h | ~19 h | approximately 12.5 hours | approximately 10 hours | 3 to 4 h | approximately 1.3 hours |  |  |  |  |  |  |  |  | start of form conversion to hydrate ([3]; 0.1N HCl, 37° C.): ~2 h; induction time before the beginning of the conversion to monohydrate ([3]; slurry in water, Raman peak ratio I(677)/I(695)): approximately 1.1 hour; end of the conversion to monohydrate ([3]; slurry in water, from the beginning of the slurry): approximately 2 hours; impurities (HPLC) ([9]; 25° C./60% RH and 40° C./75% RH, at least 6 months): less than 0.05%; impurities (HPLC) ([9]; 25° C./60% relative humidity, 2 years): less than 0.1% |
